Assays:
pigweed = assay: Test A pre-/postemergence herbicide test; format: in vivo, Amaranthus retroflexus; conditions: for Pigweed plant response rating: Preemergence, visual rating on 0 to 100 scale (0 no effect, 100 complete control)
In short: (§1)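 Seeds in loam–sand blend received preemergence directed soil spray; separately, plants 2–10 cm at one- to two-leaf stage received postemergence spray, both with test chemicals in non-phytotoxic solvent with surfactant. After ~10 days in greenhouse, injury rated visually against untreated controls, 0 (no effect) to 100 (complete control).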

wheat = assay: Test A pre-/postemergence herbicide test; format: in vivo, Triticum aestivum; conditions: for Wheat plant response rating: Preemergence, visual rating on 0 to 100 scale (0 no effect, 100 complete control)
In short: as §1

corn = assay: Test A pre-/postemergence herbicide test; format: in vivo, Zea mays; conditions: for Corn plant response rating: Preemergence, visual rating on 0 to 100 scale (0 no effect, 100 complete control)
In short: as §1

sedge, umbrella = assay: Test B flooded paddy test; format: in vivo, Cyperus difformis; conditions: 250 g ai/ha, Flood; scale of 0 to 100 where 0 is no effect and 100 is complete control
In short: (§2)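 In-water application to pots flooded 3 cm deep, plants at 2-leaf stage. Held in greenhouse 13–15 days at constant flood depth. Scored 0–100 by eye against controls.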

barnyardgrass [1] = assay: Test A pre-/postemergence herbicide test; format: in vivo, Echinochloa crus-galli; conditions: for Barnyardgrass plant response rating: Preemergence, visual rating on 0 to 100 scale (0 no effect, 100 complete control)
In short: as §1

ducksalad = assay: Test B flooded paddy test; format: in vivo, Heteranthera limosa; conditions: 250 g ai/ha, Flood; scale of 0 to 100 where 0 is no effect and 100 is complete control
In short: as §2

giant foxtail = assay: Test A pre-/postemergence herbicide test; format: in vivo, Setaria faberii; conditions: for Foxtail, Giant plant response rating: Preemergence, visual rating on 0 to 100 scale (0 no effect, 100 complete control)
In short: as §1

morningglory = assay: Test A pre-/postemergence herbicide test; format: in vivo, Ipomoea spp.; conditions: for Morningglory plant response rating: Preemergence, visual rating on 0 to 100 scale (0 no effect, 100 complete control)
In short: as §1

velvetleaf = assay: Test A pre-/postemergence herbicide test; format: in vivo, Abutilon theophrasti; conditions: for Velvetleaf plant response rating: Preemergence, visual rating on 0 to 100 scale (0 no effect, 100 complete control)
In short: as §1

crabgrass, large = assay: Test A pre-/postemergence herbicide test; format: in vivo, Digitaria sanguinalis; conditions: for Crabgrass, Large plant response rating: Preemergence, visual rating on 0 to 100 scale (0 no effect, 100 complete control)
In short: as §1

rice = assay: Test B flooded paddy test; format: in vivo, Oryza sativa; conditions: 250 g ai/ha, Flood; scale of 0 to 100 where 0 is no effect and 100 is complete control
In short: as §2

barnyardgrass [2] = assay: Test B flooded paddy test; format: in vivo, Echinochloa crus-galli; conditions: 250 g ai/ha, Flood; scale of 0 to 100 where 0 is no effect and 100 is complete control
In short: as §2

[3] = Postemergence, 125 g ai/ha, 0 to 100 scale, 0 no effect, 100 complete control
[4] = Postemergence, 500 g ai/ha, 0 to 100 scale (0 no effect, 100 complete control)
[5] = preemergence, 500 g ai/ha, 0 to 100 scale
[6] = preemergence, 500 g ai/ha, 0 to 100 scale (0 no effect, 100 complete control)

COc1cccc(C2CNC(=O)C2C(=O)Nc2ccccc2F)c1 (racemic) [Compound 36]
Plant response rating, Pigweed (pigweed; [3]): 0 | Plant response rating, Pigweed (pigweed; [4]): 0 | Pigweed plant response rating (pigweed; 125 g ai/ha): 0 | Plant response rating, Pigweed (pigweed; [5]): 0 | Plant response rating, Wheat (wheat; [3]): 0 | Plant response rating, Wheat (wheat; [4]): 0 | Wheat plant response rating (wheat; 125 g ai/ha): 0 | Plant response rating, Wheat (wheat; [5]): 20 | Plant response rating, Corn (corn; [3]): 0 | Plant response rating, Corn (corn; [4]): 0 | Corn plant response rating (corn; 125 g ai/ha): 0 | Plant response rating, Corn (corn; [5]): 0 | Plant response rating, Sedge, Umbrella (sedge, umbrella): 40 | Plant response rating, Barnyardgrass (barnyardgrass [1]; [3]): 0 | Plant response rating, Barnyardgrass (barnyardgrass [1]; [4]): 80 | Barnyardgrass plant response rating (barnyardgrass [1]; 125 g ai/ha): 40 | Plant response rating, Barnyardgrass (barnyardgrass [1]; [6]): 80 | Plant response rating, Ducksalad (ducksalad): 60 | Plant response rating, Foxtail, Giant (giant foxtail; [3]): 0 | Plant response rating, Foxtail, Giant (giant foxtail; [4]): 20 | Foxtail, Giant plant response rating (giant foxtail; 125 g ai/ha): 20 | Plant response rating, Foxtail, Giant (giant foxtail; [5]): 70 | Plant response rating, Morningglory (morningglory; [3]): 0 | Plant response rating, Morningglory (morningglory; [4]): 0 | Morningglory plant response rating (morningglory; 125 g ai/ha): 0 | Plant response rating, Morningglory (morningglory; [5]): 0 | Plant response rating, Velvetleaf (velvetleaf; [3]): 0 | Plant response rating, Velvetleaf (velvetleaf; [4]): 0 | Velvetleaf plant response rating (velvetleaf; 125 g ai/ha): 0 | Plant response rating, Velvetleaf (velvetleaf; [5]): 0 | Plant response rating, Crabgrass, Large (crabgrass, large; [3]): 0 | Plant response rating, Crabgrass, Large (crabgrass, large; [4]): 20 | Crabgrass, Large plant response rating (crabgrass, large; 125 g ai/ha): 20 | Plant response rating, Crabgrass, Large (crabgrass, large; [5]): 80 | Plant response rating, Rice (rice): 0 | Plant response rating, Barnyardgrass (barnyardgrass [2]): 0

CC1(C(=O)Nc2cccc(F)c2F)C(=O)NCC1c1ccc(F)c(Cl)c1 (stereo not drawn) [Compound 61]
Plant response rating, Pigweed (pigweed; [3]): 0 | Plant response rating, Pigweed (pigweed; [4]): 0 | Pigweed plant response rating (pigweed; 125 g ai/ha): 0 | Plant response rating, Pigweed (pigweed; [5]): 0 | Plant response rating, Wheat (wheat; [3]): 0 | Plant response rating, Wheat (wheat; [4]): 0 | Wheat plant response rating (wheat; 125 g ai/ha): 0 | Plant response rating, Wheat (wheat; [5]): 0 | Plant response rating, Corn (corn; [3]): 0 | Plant response rating, Corn (corn; [4]): 0 | Corn plant response rating (corn; 125 g ai/ha): 0 | Plant response rating, Corn (corn; [5]): 0 | Plant response rating, Sedge, Umbrella (sedge, umbrella): 30 | Plant response rating, Barnyardgrass (barnyardgrass [1]; [3]): 0 | Plant response rating, Barnyardgrass (barnyardgrass [1]; [4]): 20 | Barnyardgrass plant response rating (barnyardgrass [1]; 125 g ai/ha): 0 | Plant response rating, Barnyardgrass (barnyardgrass [1]; [6]): 0 | Plant response rating, Ducksalad (ducksalad): 0 | Plant response rating, Foxtail, Giant (giant foxtail; [3]): 0 | Plant response rating, Foxtail, Giant (giant foxtail; [4]): 30 | Foxtail, Giant plant response rating (giant foxtail; 125 g ai/ha): 0 | Plant response rating, Foxtail, Giant (giant foxtail; [5]): 0 | Plant response rating, Morningglory (morningglory; [3]): 0 | Plant response rating, Morningglory (morningglory; [4]): 0 | Morningglory plant response rating (morningglory; 125 g ai/ha): 0 | Plant response rating, Morningglory (morningglory; [5]): 0 | Plant response rating, Velvetleaf (velvetleaf; [3]): 0 | Plant response rating, Velvetleaf (velvetleaf; [4]): 0 | Velvetleaf plant response rating (velvetleaf; 125 g ai/ha): 0 | Plant response rating, Velvetleaf (velvetleaf; [5]): 0 | Plant response rating, Crabgrass, Large (crabgrass, large; [3]): 0 | Plant response rating, Crabgrass, Large (crabgrass, large; [4]): 70 | Crabgrass, Large plant response rating (crabgrass, large; 125 g ai/ha): 0 | Plant response rating, Crabgrass, Large (crabgrass, large; [5]): 80 | Plant response rating, Rice (rice): 0 | Plant response rating, Barnyardgrass (barnyardgrass [2]): 0
